Paper PMC10893631, “Receptor-based pharmacophore modeling, molecular docking, synthesis and biological evaluation of novel VEGFR-2, FGFR-1, and BRAF multi-kinase inhibitors” (BMC Chemistry, 2024)

Key:
Experiment in all cases: NCI SRB growth inhibition (single dose 10 µM / five-dose)
Assay type in all cases: cell-based, human
[1] = system: 786–0; conditions: Homo sapiens; 786–0 (Renal cancer), 10 µM; read-out: GI%
Description: (§1) Screening of cytotoxic activity against a panel of sixty human tumor cell lines The selected compounds by NCI were evaluated for their anticancer activity in a two- stage process. […] Then, the output from the single dose screen is reported as a mean graph. […] Assay protocol. […] For a typical screening experiment, cells are inoculated into 96 well microtiter plates in 100 µL at plating densities ranging from 5000 to 40,000 cells/well depending on the doubling time of individual cell lines. […] After 24 h, two plates of each cell line are fixed in situ with TCA, to represent a measurement of the cell population for each cell line at the time of drug addition (Tz). The experimental drugs are solubilized in dimethyl sulfoxide at 400-fold the desired final maximum test concentration and stored frozen prior to use. At the time of drug addition, an aliquot of frozen concentrate is thawed and diluted to twice the desired final maximum test concentration with complete medium containing 50 µg/mL gentamicin. Additional four, 10-fold or ½ log serial dilutions are made to provide a total of five drug concentrations plus control. Aliquots of 100 mL of these different drug dilutions are added to the appropriate microtiter wells already containing […] of medium, resulting in the required final drug concentrations. […] For adherent cells, the assay is terminated by the addition of cold TCA. […] The supernatant is discarded, and the plates are washed five times with tap water and air dried. Sulforhodamine B (SRB) solution ([…]) at 0.4% (w/v) in 1% acetic acid is added to each well, and plates are incubated for 10 min at room temperature. After staining, unbound dye is removed by washing five times with 1% acetic acid and the plates are air dried. […] Using the seven absorbance measurements [time zero, (Tz), control growth, (C), and test growth in the presence of drug at the five concentration levels (Ti)], the percentage growth is calculated at each of the drug concentrations levels. Percentage growth inhibition is calculated as: [(Ti Tz)/(C–Tz)] x 100 for concentrations for which Ti>/=Tz and [(Ti-Tz)/Tz] x 100 for concentrations for which Ti < Tz. Three dose response parameters are calculated for each experimental agent. […] The drug concentration resulting in total growth inhibition (TGI) is calculated from Ti = Tz. […] Values are calculated for each of these three parameters if the level of activity is reached; however, if the effect is not reached or is exceeded, the value for that parameter is expressed as greater or less than the maximum or minimum concentration tested.

[2] = system: ACHN; conditions: Homo sapiens
Description: as §1

[3] = system: BT-549; conditions: Homo sapiens
Description: as §1

[4] = system: COLO 205; conditions: Homo sapiens
Description: as §1

[5] = system: EKVX; conditions: Homo sapiens
Description: as §1

[6] = system: HOP-62; conditions: Homo sapiens
Description: as §1

[7] = system: HT29; conditions: Homo sapiens, HT-29; HT29 (Colon cancer), 10 µM; read-out: GI%
Description: as §1

[8] = system: IGROV1; conditions: Homo sapiens, IGROV-1
Description: as §1

[9] = system: K-562; conditions: Homo sapiens, K562
Description: as §1

[10] = system: KM12; conditions: Homo sapiens
Description: as §1

[11] = system: MDA-MB-231/ATCC; conditions: Homo sapiens
Description: as §1

[12] = system: MDA-MB-468; conditions: Homo sapiens
Description: as §1

[13] = system: NCI-H226; conditions: Homo sapiens
Description: as §1

[14] = system: NCI-H23; conditions: Homo sapiens
Description: as §1

[15] = system: NCI-H522; conditions: Homo sapiens
Description: as §1

[16] = system: NCI/ADR-RES; conditions: Homo sapiens
Description: as §1

[17] = system: RPMI-8226; conditions: Homo sapiens
Description: as §1

[18] = system: SF-268; conditions: Homo sapiens
Description: as §1

[19] = system: SK-MEL-2; conditions: Homo sapiens; SK-MEL-2, Melanoma; five-dose
Description: as §1

[20] = system: SK-MEL-5; conditions: Homo sapiens
Description: as §1

[21] = system: SN12C; conditions: Homo sapiens
Description: as §1

[22] = system: SNB-19; conditions: Homo sapiens
Description: as §1

[23] = system: SNB-75; conditions: Homo sapiens
Description: as §1

[24] = system: SR; conditions: Homo sapiens
Description: as §1

[25] = system: TK-10; conditions: Homo sapiens
Description: as §1

[26] = system: UACC-257; conditions: Homo sapiens
Description: as §1

COc1ccc(-c2nc3cc(C(=O)NN=Cc4ccccc4O)ccc3[nH]2)cc1 [8h, N'-(2-Hydroxybenzylidene)-2-(4-methoxyphenyl)-1H-benzo[d]imidazole-5-carbohydrazide]
inhibition at 10 µM [1]: > 100%
inhibition at 10 µM ([2]; ACHN (Renal cancer), 10 µM, read-out: GI%): > 100%
GI50 ([2]; ACHN, Renal cancer, five-dose): 3020 nM
inhibition at 10 µM ([3]; BT-549 (Breast cancer), 10 µM, read-out: GI%): > 100%
GI50 ([3]; BT-549, Breast cancer, five-dose): 6990 nM
inhibition at 10 µM ([4]; COLO 205 (Colon cancer), 10 µM, read-out: GI%): > 100%
GI50 ([4]; COLO 205, Colon cancer, five-dose): 2900 nM
inhibition at 10 µM ([5]; EKVX (Non-small cell lung cancer), 10 µM, read-out: GI%): 92.2%
GI50 ([5]; EKVX, Non-small cell lung cancer, five-dose): 3240 nM
inhibition at 10 µM ([6]; HOP-62 (Non-small cell lung cancer), 10 µM, read-out: GI%): > 100%
GI50 ([6]; HOP-62, Non-small cell lung cancer, five-dose): 5090 nM
inhibition at 10 µM [7]: > 100%
inhibition at 10 µM ([8]; IGROV1 (Ovarian cancer), 10 µM, read-out: GI%): > 100%
GI50 ([8]; IGROV1, Ovarian cancer, five-dose): 2260 nM
inhibition at 10 µM ([9]; K-562 (Leukemia), 10 µM, read-out: GI%): 99.5%
GI50 ([9]; K-562, Leukemia, five-dose): 1360 nM
inhibition at 10 µM ([10]; KM12 (Colon cancer), 10 µM, read-out: GI%): > 100%
GI50 ([10]; KM12, Colon cancer, five-dose): 4240 nM
inhibition at 10 µM ([11]; MDA-MB-231/ATCC (Breast cancer), 10 µM, read-out: GI%): 98.7%
GI50 ([11]; MDA-MB-231/ATCC, Breast cancer, five-dose): 4480 nM
inhibition at 10 µM ([12]; MDA-MB-468 (Breast cancer), 10 µM, read-out: GI%): > 100%
GI50 ([12]; MDA-MB-468, Breast cancer, five-dose): 2980 nM
inhibition at 10 µM ([13]; NCI-H226 (Non-small cell lung cancer), 10 µM, read-out: GI%): > 100%
GI50 ([13]; NCI-H226, Non-small cell lung cancer, five-dose): 6940 nM
inhibition at 10 µM ([14]; NCI-H23 (Non-small cell lung cancer), 10 µM, read-out: GI%): 94.6%
GI50 ([14]; NCI-H23, Non-small cell lung cancer, five-dose): 2060 nM
inhibition at 10 µM ([15]; NCI-H522 (Non-small cell lung cancer), 10 µM, read-out: GI%): > 100%
GI50 ([15]; NCI-H522, Non-small cell lung cancer, five-dose): 1540 nM
inhibition at 10 µM ([16]; NCI/ADR-RES (Ovarian cancer), 10 µM, read-out: GI%): 63.2%
GI50 ([16]; NCI/ADR-RES, Ovarian cancer, five-dose): 6740 nM
inhibition at 10 µM ([17]; RPMI-8226 (Leukemia), 10 µM, read-out: GI%): 96.7%
GI50 ([17]; RPMI-8226, Leukemia, five-dose): 1390 nM
inhibition at 10 µM ([18]; SF-268 (CNS cancer), 10 µM, read-out: GI%): > 100%
GI50 ([18]; SF-268, CNS cancer, five-dose): 920 nM
GI50 [19]: 5170 nM
inhibition at 10 µM ([20]; SK-MEL-5 (Melanoma), 10 µM, read-out: GI%): > 100%
GI50 ([20]; SK-MEL-5, Melanoma, five-dose): 1730 nM
inhibition at 10 µM ([21]; SN12C (Renal cancer), 10 µM, read-out: GI%): > 100%
GI50 ([21]; SN12C, Renal cancer, five-dose): 4990 nM
inhibition at 10 µM ([22]; SNB-19 (CNS cancer), 10 µM, read-out: GI%): > 100%
GI50 ([22]; SNB-19, CNS cancer, five-dose): 1760 nM
inhibition at 10 µM ([23]; SNB-75 (CNS cancer), 10 µM, read-out: GI%): 95.6%
GI50 ([23]; SNB-75, CNS cancer, five-dose): 390 nM
inhibition at 10 µM ([24]; SR (Leukemia), 10 µM, read-out: GI%): 85.9%
GI50 ([24]; SR, Leukemia, five-dose): 1170 nM
inhibition at 10 µM ([25]; TK-10 (Renal cancer), 10 µM, read-out: GI%): > 100%
GI50 ([25]; TK-10, Renal cancer, five-dose): 6190 nM
inhibition at 10 µM ([26]; UACC-257 (Melanoma), 10 µM, read-out: GI%): 85%
GI50 ([26]; UACC-257, Melanoma, five-dose): 6320 nM
